EP4653001A1, “TREATMENT, DIAGNOSIS AND/OR PROGNOSIS OF MITOCHONDRIAL DISEASES” (Universidad Autónoma de Madrid, priority 2024, dated 2025)

What was measured:
143B cells [1] = assay: Metabolomics of intracellular metabolites in 143B cells; format: cell-based; conditions: 48 h
Description: (§1) 1-5.0×10^6 cells were harvested on dry ice with 1 mL pre-chilled 80% HPLC-grade methanol (Fluka Analytical). The cell mixture was incubated for 15 min on dry ice prior to centrifugation at 18,000 × g for 10 min at 4°C. The supernatant was retained, and the remaining cell pellet was resuspended in 800 µL chilled 80% methanol and centrifuged. Supernatant was combined with the previous retention and was lyophilized using a SpeedVac (Thermo Fisher). Lyophilized samples were resuspended in 20 µL ultrapure water and subjected to metabolomics profiling using the AB/SCIEX 5500 QTRAP triple quadrupole instrument. Data analysis was performed using the GiTools software. 13C-labeled glutamine and glucose was acquired in SIGMA (605166 and 389374).
Next, we conducted time-course experiments to gain further knowledge on the metabolic determinants underlying the observed synthetic lethality between PPP and OXPHOS. 143B cells were treated either with Piericidin or G6PDi (selective inhibitor of G6PD) alone or the combination of both and cell proliferation was quantified over the course of 96 h. […] Conversely, dual inhibition produced a marked reduction in cell survival beyond 48 h of treatment that was even more accentuated at 96 h (Figure 2A). […]

cortical neurons = assay: ATP measurement in live neurons (FRET ATP biosensor); format: cell-based, rats; conditions: soma or axons, 100 nM, 24 h
Description: ATP measurements was performed in primary co-cultures of cortical neurons and astrocytes from P1-2 wild-type rats of the Sprague-Dawley strain Crl:CD(SD), which are bred by Charles River Laboratories following the international genetic standard protocol (IGS). All experiments were carried out in strict accordance with the guidelines of the European Directive 2010/63/EU and the French Decree n° 2013- 118 concerning the protection of animals used for scientific purposes. Neurons were plate on poly- ornithine (Sigma-Aldrich, P3655) coated coverslips and maintained in culture media composed by MEM (Thermo Fisher Scientific, 51200-046), 20 mM Glucose (Sigma-Aldrich, G8270), 0.1 mg/mL transferrin (Sigma-Aldrich, 616420), 1% Glutamax (Thermo Fisher Scientific, 35050-038), 24 µg/mL insulin (Sigma-Aldrich, I6634), 5% FBS (Thermo Fisher Scientific, 10082-147), 2% N-21 (Bio-techne, AR008) and 4µM cytosine β-d-arabinofuranoside (Sigma-Aldrich, C6645). Cultures were incubated at 37°C in 95% air / 5% CO 2 humidified incubator.
Neurons were transfected at DIV 8 with ATeam1.03-nD/nA/pcDNA3 (gift from Takeharu Nagai (Addgene plasmid # 51958; http://n2t.net/addgene:51958; RRID:Addgene_51958)) and imaged at DIV 19. […] Fluorescence emission from ATeam was imaged using a FS 78 HE Dual camera; the exposure times were 250 ms for CFP and YFP images. […]

143B cells [2] = assay: Stable isotope tracing with uniformly labeled 13C-glucose; format: cell-based
Description: as §1, with “13C-labeled glutamine and glucose was acquired in SIGMA (605166 and 389374).” left out
Encouraged by the beneficial effects of ME1 and because ME1-dependent NADPH production is linked to intracellular malate levels, we sought to investigate the metabolic pathways and nutrients that maintain malate production upon disruption of the ETC. It is firmly believed that in cells and tissues with defective ETC function, elevated NADH/NAD+ ratio inhibits the Pyruvate dehydrogenase complex (PDC), suppressing pyruvate entry into the mitochondria and forcing its channelling towards the Lactate Dehydrogenase (LDH) in the cytosol. […] This reaction involves addition of an unlabeled carbon by IDH2 acting in reverse relative to the canonical oxidative TCA cycle. Malate M+3 also rose more than a ~2-fold in CI-inhibited cells and was likely formed after cleavage of citrate M+5 by ATP-citrate lyase (ACLY) since this induction was blunted in ACLY KO cells. […] We hypothesized that an alternative mechanism could involve pyruvate entry into the mitochondria where it can be carboxylated to OAA by the pyruvate carboxylase (PC). […] To examine the contribution of PC to malate formation in the context of ETC dysfunction, control and PC KO cells were cultured with uniformly labeled [^13C]glucose and treated either with DMSO or Piericidin. In this labeling scheme, oxidative metabolism of glucose-derived pyruvate would give rise to TCA cycle intermediates with M+2 labeling as CO2 is removed during conversion of pyruvate to acetyl-CoA by pyruvate dehydrogenase (PDH). By contrast, carbon labels are retained if pyruvate is carboxylated by PC and would generate M+3 intermediates (Figure 3A). […] Malate and aspartate M+3/M+2 ratios, which reflect the relative contribution of PC versus PDH to metabolite labeling, were ~7-fold and ~10-fold higher respectively, in cells treated with Piericidin (Figure 3B and C). […] In this regard, it is not surprising that PC activity is favoured over PDH when the ETC is defective as it is not regulated by NADH levels.

primary neurons = assay: Neuronal death; format: cell-based, mouse; conditions: CI inhibition
[3] = uniformly labeled [13C]glucose, vs DMSO

Question: `CC=C(C)C(O)C(C)C=C(C)C=CCC(C)=CCc1nc(OC)c(OC)c(O)c1C` (centres unmarked) [Piericidin, Piericidin A] was tested. Which NADH (143B cells [1]) did it give?
Answer: accumulation

Question: What about the “intracellular levels of NADPH” value (143B cells [1]) of the same compound?
Answer: did not exert significant changes

Question: What about the “ATP (genetically encoded biosensor)” value (cortical neurons) of the same compound?
Answer: did not altered

Question: What about the “PDH-dependent labeling of aspartate and malate” value (143B cells [2]; control and PC KO cells) of the same compound?
Answer: clearly reduced

Question: What about the “PC-mediated labeling of TCA cycle intermediates” value (143B cells [2]; particularly aspartate and malate) of the same compound?
Answer: marked induction

Question: And the “Malate M+3/M+2 ratio, higher” value (143B cells [2]; [3])?
Answer: ~ 7 fold

Question: And the “aspartate M+3/M+2 ratio, higher” value (143B cells [2]; [3])?
Answer: ~ 10 fold

Question: What about the neuronal death (primary neurons) of the same compound?
Answer: did not correspond to an increase
